Test results from patent US7667048B2, “Green and orange fluorescent labels and their uses” (Aries Associates, Inc., priority 2002, dated 2010).

Experiment: Fluorescence excitation and emission spectra
Assay type: physicochemical
Protocol: Fluorescence excitation and emission spectra were measured either using Hitachi F-4500 Fluorescence Spectrophotometer in ratio mode with a rhodamine B quantum counter. For fluorescence polarization experiments, two different detection instruments were used, a BMG Polarstar and an LJL Analyst. Molecular brightness measurements in 96-well and 384-well microtiter plates were performed in the following four instruments: (1) the LJL analyst, (2) the Tecan Ultra, (3) the PerSeptive and, (4) Chromagen's own photon counting instrument as described in U.S. patent application Ser. No. 09/552/803 and its continuation in part.

Compound | fluorescence λ em (MeOH/H2O) [nm] | fluorescence λ ex (MeOH/H2O) [nm] | fluorescence λ em (H2O) [nm] | fluorescence λ ex (H2O) [nm] | other results
1-Hydroxy-3,6-dimethylsulfonamido-8-sulfonate-pyrene [compound 14] | 545 | 490 | – | – | –
3-Hydroxy-6,8-disulfonate-(4′-succinyl-6′-aminohexyl)-pyrene [compound 5] | – | – | 505 | 450 | –
3-Hydroxy-6,8-disulfonate-(4′-succinylamino-6′-isothiocyanyl-hexyl)-pyrene [compound 6] | – | – | 503 | 450 | –
Nc1cc(O)c2ccc3c(S(=O)(=O)O)cc(S(=O)(=O)O)c4ccc1c2c43 [compound 3, 1-Amino-3-hydroxy-6,8-disulfonate-pyrene] | – | – | 492 | 450 | –
COC(=O)CCC(=O)Nc1cc(O)c2ccc3c(S(=O)(=O)O)cc(S(=O)(=O)O)c4ccc1c2c34 [compound 4, 3-Hydroxy-6,8-disulfonate-methylsuccinylamino-pyrene] | – | – | 492 | 450 | –
NCCCC(=O)c1cc(O)c2ccc3c(S(=O)(=O)O)cc(S(=O)(=O)O)c4ccc1c2c34 [compound 7, 3-Hydroxy, 6,8-disulfonate-aminoethylacetyl-pyrene] | 502 | 450 | – | – | –
CN(C)S(=O)(=O)c1cc(O)c2ccc3c(S(=O)(=O)N(C)CCCN)cc(S(=O)(=O)N(C)C)c4ccc1c2c43 [compound 15, 1-Hydroxy-3,6-di-(dimethylsulfonamido)-8-(3-aminopropyl-methyl-sulfonamido)-pyrene] | 548 | 490 | – | – | –
CN(C)S(=O)(=O)c1cc(O)c2ccc3c(S(=O)(=O)N(C)CCCN=C=S)cc(S(=O)(=O)N(C)C)c4ccc1c2c43 [compound 16] | 548 | 490 | – | – | –
CN(C)S(=O)(=O)c1cc(O)c2ccc3c(S(=O)(=O)Nc4ccc(CCCC(=O)ON5C(=O)CCC5=O)cc4)cc(S(=O)(=O)N(C)C)c4ccc1c2c34 [compound 17, 1-Hydroxy-3,6-di(dimethylsulfonamido)-8-(4′-succinimidylbutyrate)-phenylsulfonamido-pyrene] | – | – | – | – | fluorescence λ em (DMSO/Phosphate buffer): 553 nm; fluorescence λ ex (DMSO/Phosphate buffer): 510 nm
